The results in this text go back to patent publication US8481576B2 (Abbott GmbH & Co. KG, priority 2004, dated 2013).

One may read the Ki as a dissociation constant, usually derived from enzyme kinetics or from competition with a known ligand.

The structures appear in SMILES notation. Structures can show the parent of a compound that is named as a salt. Bounds are passed on as bounds.

For this assay, the target named is T1, h5-HT5A receptor (Homo sapiens, UniProt P47898).
T1 construct: expressed in transfected cells; host or cells: HEK293
The assay can be described thus: [3H]5-CT binding assay h5-HT5A. As to conditions: membranes from HEK293 cells expressing h5-HT5A, 2.5 nM [3H]5-CT; read-out: Binding affinity 5-HT5A (Ki). In short, it runs like this: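 Membranes from HEK293 cells stably expressing h5-HT5A incubated with 2.5 nM [3H]5-CT and compound in 100 mM Tris-HCl pH 7.7, 1 mM EDTA, 75 min at 30° C. Nonspecific binding with 10 μM methiothepine; filtration and scintillation counting give Ki or IC50.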

T1 sequence (P47898 whole entry): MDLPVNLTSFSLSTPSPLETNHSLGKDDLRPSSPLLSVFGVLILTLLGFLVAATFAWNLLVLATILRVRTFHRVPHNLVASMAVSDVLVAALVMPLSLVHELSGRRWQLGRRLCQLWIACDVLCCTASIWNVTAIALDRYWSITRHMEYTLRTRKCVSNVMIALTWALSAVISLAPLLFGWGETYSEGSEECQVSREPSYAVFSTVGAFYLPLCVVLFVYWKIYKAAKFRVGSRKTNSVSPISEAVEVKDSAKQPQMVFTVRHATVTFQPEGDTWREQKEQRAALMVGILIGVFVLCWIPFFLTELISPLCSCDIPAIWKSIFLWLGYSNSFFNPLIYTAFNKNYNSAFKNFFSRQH

In the case of `COc1cccc(OC)c1CNC(=N)Nc1nc(C2CCCN2C(C)=O)cs1` (centres unmarked) [Example 148, N-[4-(1-acetylpyrrolidine-2-yl)-1,3-thiazole-2-yl]-N′-(2,6-dimethoxybenzyl)guanidine], the inhibition constant Ki is less than 50 nM.

Regarding `COc1cccc(OC)c1CNC(=N)Nc1nc(C2CCCN2C)cs1` (centres unmarked) [Example 149, N-(2,6-dimethoxybenzyl)-N′-[4-(1-methylpyrrolidine-2-yl)-1,3-thiazole-2-yl]guanidine], the Ki was less than 50 nM. Regarding `COc1cccc(OC)c1CNC(=N)Nc1nc(C2CCCN2S(=O)(=O)c2ccccc2)cs1` (centres unmarked) [Example 150, N-(2,6-dimethoxybenzyl)-N′-{4-[1-(phenylsulfonyl)pyrrolidine-2-yl]-1,3-thiazole-2-yl}guanidine], the Ki was less than 50 nM. The value for `COc1cccc(OC)c1CNC(=N)Nc1nc(C2CCCN2Cc2ccccc2)cs1` (centres unmarked) [Example 151, N-[4-(1-benzylpyrrolidine-2-yl)-1,3-thiazole-2-yl]-N′-(2,6-dimethoxybenzyl)guanidine] was less than 50 nM; that for `COc1cccc(Cl)c1CNC(=N)Nc1nc(-c2ncc(F)cc2F)cs1` [Example 152, N-(2-chloro-6-methoxybenzyl)-N′-[4-(3,5-difluoropyridine-2-yl)-1,3-thiazole-2-yl]guanidine] was less than 50 nM; that for `COc1cccc(OC)c1CNC(=N)Nc1nc(-c2ccc(F)cc2OCCN2CCOCC2)cs1` [Example 153, N-(2,6-dimethoxybenzyl)-N′-{4-[4-fluoro-2-(2-morpholine-4-ylethoxy)phenyl]-1,3-thiazole-2-yl}guanidine] was less than 50 nM. The value for `COc1cccc(OC)c1CNC(=N)Nc1nc(CN)cs1` [Example 154, N-[4-(aminomethyl)-1,3-thiazole-2-yl]-N′-(2,6-dimethoxybenzyl)guanidine hydrochloride] was less than 50 nM; that for `COc1cccc(OC)c1CNC(=N)Nc1nc(CNC(=O)c2ccccc2)cs1` [Example 155, N-[(2-{[[(2,6-dimethoxybenzyl)amino](imino)methyl]amino}-1,3-thiazole-4-yl)methyl]benzamide] was less than 50 nM; that for `COc1cccc(OC)c1CNC(=N)Nc1nc(C2CCCN2C(C)C)cs1` (centres unmarked) [Example 156, N-(2,6-dimethoxybenzyl)-N′-[4-(1-isopropylpyrrolidine-2-yl)-1,3-thiazole-2-yl]guanidine] was 50 to 500 nM. In the case of `CCCCS(=O)(=O)NCc1csc(NC(=N)NCc2c(OC)cccc2OC)n1` [Example 157, N-[(2-{[[(2,6-dimethoxybenzyl)amino](imino)methyl]amino}-1,3-thiazole-4-yl)methyl]butane-1-sulfonamide] it was less than 50 nM. `COc1cccc(OC)c1CNC(=N)Nc1nc(CN(C)C)cs1` [Example 158, N-(2,6-Dimethoxybenzyl)-N′-{4-[(dimethylamino)methyl]-1,3-thiazole-2-yl}guanidine acetate]: the Ki was less than 50 nM. The value for `COC(=O)NCc1csc(NC(=N)NCc2c(OC)cccc2OC)n1` [Example 159, Methyl[(2-{[[(2,6-dimethoxybenzyl)amino](imino)methyl]amino}-1,3-thiazole-4-yl)methyl]carbamate] was less than 50 nM. The value for `COC(=O)c1sc(NC(=N)NCc2c(OC)cccc2OC)nc1-c1ccc(F)cc1` [Example 160, Methyl-2-{[[(2,6-dimethoxybenzyl)amino](imino)methyl]amino}-4-(4-fluorophenyl)-1,3-thiazole-5-carboxylate] was less than 50 nM; that for `COc1cccc(OC)c1CNC(=N)Nc1nc(C2CCNCC2)cs1` [Example 162, N-(2,6-dimethoxybenzyl)-N′-(4-piperidine-4-yl-1,3-thiazole-2-yl)guanidine hydrochloride] was less than 50 nM. The value for `COc1cccc(OC)c1CNC(=N)Nc1nc(C2CCN(S(C)(=O)=O)CC2)cs1` [Example 163, N-(2,6-dimethoxybenzyl)-N′-{4-[1-(methylsulfonyl)piperidine-4-yl]-1,3-thiazole-2-yl}guanidine] was less than 50 nM; that for `COc1cccc(OC)c1CNC(=N)Nc1nc(-c2ncccc2Cl)cs1` [Example 164, N-[4-(3-chloropyridine-2-yl)-1,3-thiazole-2-yl]-N′-(2,6-dimethoxybenzyl)guanidine] was less than 50 nM.

Regarding `COc1cccc(OC)c1CNC(=N)Nc1nc(-c2ccnc3c(F)cccc23)cs1` [Example 165, N-(2,6-dimethoxybenzyl)-N′-[4-(8-fluorochinoline-4-yl)-1,3-thiazole-2-yl]guanidine], the Ki was less than 50 nM. In the case of `COc1ccccc1CNC(=N)Nc1nc(N2CCCCC2)cs1` [Example 166, 1-[2-({imino[(2-methoxybenzyl)amino]methyl}amino)-1,3-thiazole-4(5H)-ylidene]piperidinium chloride] it was more than 500 nM; in that of `COc1cccc(OC)c1CNC(=N)Nc1nc(N2CCOCC2)cs1` [Example 167, 4-[2-{[[(2,6-dimethoxybenzyl)amino](imino)methyl]amino}-1,3-thiazole-4(5H)-yliden]morpholine-4-ium chloride], 50 to 500 nM. The value for `COc1ccccc1CNC(=N)Nc1nc2ccc(C)cc2s1` [Example 168, N-(2-methoxybenzyl)-N′-(6-methyl-1,3-benzothiazole-2-yl)guanidine fumarate] was 50 to 500 nM. The value for `COc1cccc(OC)c1CNC(=N)Nc1nc2ccc(C)cc2s1` [Example 169, N-(2,6-dimethoxybenzyl)-N′-(6-methyl-1,3-benzothiazole-2-yl)guanidine fumarate] was less than 50 nM; that for `CCOc1ccc2nc(NC(=N)NCc3ccccc3OC)sc2c1` [Example 170, N-(6-ethoxy-1,3-benzothiazole-2-yl)-N′-(2-methoxybenzyl)guanidine fumarate] was 50 to 500 nM; that for `COc1cccc(OC)c1CNC(=N)Nc1nc2cc(Cl)c(C)cc2s1` [Example 171, N-(5-chlor-6-methyl-1,3-benzothiazole-2-yl)-N′-(2,6-dimethoxybenzyl)guanidine difumarate] was 50 to 500 nM. As for `COc1cccc(OC)c1CNC(=N)Nc1nc2cc(C)c(C)cc2s1` [Example 172, N-(2,6-dimethoxybenzyl)-N′-(5,6-dimethyl-1,3-benzothiazole-2-yl)guanidine fumarate], the inhibition constant Ki is less than 50 nM. Regarding `COc1ccccc1CNC(=N)Nc1nc(C)c(C)o1` [Example 173, N-(4,5-dimethyl-1,3-oxazole-2-yl)-N′-(2-methoxybenzyl)guanidine], the Ki is 50 to 500 nM. The value for `COc1cccc(OC)c1CNC(=N)Nc1nc(C)c(C)o1` [Example 174, N-(2,6-dimethoxybenzyl)-N′-(4,5-dimethyl-1,3-oxazole-2-yl)guanidine acetate] was less than 50 nM. In the case of `COc1ccccc1CNC(=N)Nc1nnc(-c2ccccc2)s1` [Example 175, N-(2-methoxybenzyl)-N′-(5-phenyl-1,3,4-thiadiazole-2-yl)guanidine acetate] it was more than 500 nM.

For `COc1cccc(OC)c1CNC(=N)Nc1nnc(-c2ccccc2)s1` [Example 176, N-(2,6-dimethoxybenzyl)-N′-(5-phenyl-1,3,4-thiadiazole-2-yl)guanidine], the inhibition constant (Ki) was in the range of 50 to 500 nM. In the case of `COc1cccc(OC)c1CNC(=N)Nc1ncc[nH]1` [Example 177, N-(2,6-dimethoxybenzyl)-N′-1H-imidazole-2-ylguanidine acetate] it was less than 50 nM. In the case of `COc1ccccc1CNC(=N)Nc1nnc(C)s1` [Example 178, N-(2-methoxybenzyl)-N′-(5-methyl-1,3,4-thiadiazole-2-yl)guanidine], the Ki is 50 to 500 nM.

Take `COc1ccccc1CNC(=N)Nc1n[nH]c2ccccc12` [Example 179, N-1H-indazole-3-yl-N′-(2-methoxybenzyl)guanidine acetate]: the Ki was less than 50 nM. The value for `COc1cccc(OC)c1CNC(=N)Nc1n[nH]c2ccccc12` [Example 180, N-(2,6-dimethoxybenzyl)-N′-1H-indazole-3-ylguanidine acetate] was less than 50 nM; that for `COc1cccc(OC)c1CNC(=N)Nc1nnc(C)[nH]1` [Example 181, N-(2,6-dimethoxybenzyl)-N′-(5-methyl-4H-1,2,4-triazole-3-yl)guanidine] was less than 50 nM; that for `COc1cccc(OC)c1CNC(=N)Nc1nc2ccccc2[nH]1` [Example 182, N-1H-benzimidazole-2-yl-N′-(2,6-dimethoxybenzyl)guanidine diacetate] was less than 50 nM. The value for `COc1ccccc1CNC(=N)Nc1ncc[nH]1` [Example 183, N-1H-imidazole-2-yl-N′-(2-methoxybenzyl)guanidine acetate] was 50 to 500 nM; that for `COc1ccccc1CNC(=N)Nc1nnc[nH]1` [Example 184, N-(2-methoxybenzyl)-N′-4H-1,2,4-triazole-3-ylguanidine acetate] was more than 500 nM. `COc1ccccc1CNC(=N)Nc1nnc(C)[nH]1` [Example 185, N-(2-methoxybenzyl)-N′-(5-methyl-4H-1,2,4-triazole-3-yl)guanidine acetate]: the Ki is more than 500 nM. In the case of `COc1ccccc1CNC(=N)Nc1nc(-c2ccc(F)cc2)c[nH]1` [Example 186, N-[4-(4-fluorophenyl)-1H-imidazole-2-yl]-N′-(2-methoxybenzyl)guanidine] it was less than 50 nM.

Consider `COc1cccc(OC)c1CNC(=N)Nc1nc(-c2ccccc2)c[nH]1` [Example 187, N-(2,6-dimethoxybenzyl)-N′-(4-phenyl-1H-imidazole-2-yl)guanidine acetate], for which the Ki is less than 50 nM. The value for `COc1ccccc1CNC(=N)Nc1nc(-c2ccccc2)c[nH]1` [Example 188, N-(2-methoxybenzyl)-N′-(4-phenyl-1H-imidazole-2-yl)guanidine acetate] was less than 50 nM; that for `COc1cccc(OC)c1CNC(=N)Nc1nnc[nH]1` [Example 189, N-(2,6-Dimethoxybenzyl)-N′-4H-1,2,4-triazole-3-ylguanidine acetate] was less than 50 nM.
